How the values were obtained:
Assay in all cases: relative viability (nuclei count vs DMSO), 5 days (fraction); higher = more cells survive
[1] = compound: CCC1=CN=CN=C1N2CCN(CC2)CC3=NC4=C(N3)C=C(C=C4)C(F)(F)F + CC1(C)CCC(c2ccc(Cl)cc2)=C(CN2CCN(c3ccc(C(=O)NS(=O)(=O)c4ccc(N[C@H](CCN5CCOCC5)CSc5ccccc5)c(S(=O)(=O)C(F)(F)F)c4)cc3)CC2)C1 [Navitoclax] (partner 0.5 µM)
Method in brief: (§1)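 Cells from lung cancer lines were seeded into 1536-well plates and, one day later, dosed by pin tool. Treatments were either a single drug or a fixed dose of an anchor drug with five library-drug doses (not always all listed) in √10 steps. After 5 days, nuclei were stained in a one-step fixation (final 0.05% Triton X-100, 1% formaldehyde, 1 ug/ml Hoechst) and counted on 4× images, and relative viability is the treated-to-vehicle nuclei ratio, as the median of duplicate plates.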

[2] = compound: CCC1=CN=CN=C1N2CCN(CC2)CC3=NC4=C(N3)C=C(C=C4)C(F)(F)F + COc1cc2c(Oc3ccc(NC(=O)C4(C(=O)Nc5ccc(F)cc5)CC4)cc3F)ccnc2cc1OCCCN1CCOCC1 [Foretinib] (partner 0.25 µM)
Method in brief: as §1

Mirin + Lapatinib = compound: N=C1NC(=O)/C(=C/c2ccc(O)cc2)S1 [Mirin] + CS(=O)(=O)CCNCc1ccc(-c2ccc3ncnc(Nc4ccc(OCc5cccc(F)c5)c(Cl)c4)c3c2)o1 [Lapatinib] (partner 2 µM)
Method in brief: as §1

[3] = compound: CCn1c(-c2nonc2N)nc2cnc(Oc3cccc(NC(=O)c4ccc(OCCN5CCOCC5)cc4)c3)cc21 + Cc1nc(NC(=O)N2CCC[C@H]2C(N)=O)sc1-c1ccnc(C(C)(C)C(F)(F)F)c1 [Alpelisib] (partner 2 µM)
Method in brief: as §1

Cell Line: UMC-11
- relative viability ([1]; first compound 0.04 µM): 0.319
- relative viability ([1]; first compound 0.1265 µM): 0.304
- relative viability ([1]; first compound 0.4 µM): 0.312
- relative viability ([1]; first compound 1.265 µM): 0.284
- relative viability ([1]; first compound 4 µM): 0.305
- relative viability ([2]; first compound 0.04 µM): 0.997
- relative viability ([2]; first compound 0.1265 µM): 0.932
- relative viability ([2]; first compound 0.4 µM): 1
- relative viability ([2]; first compound 1.265 µM): 0.898
- relative viability ([2]; first compound 4 µM): 0.96
- relative viability (Mirin + Lapatinib; first compound 0.25 µM): 0.958
- relative viability (Mirin + Lapatinib; first compound 2.5 µM): 0.985
- relative viability (Mirin + Lapatinib; first compound 7.906 µM): 0.548
- relative viability (Mirin + Lapatinib; first compound 25 µM): 0.684
- relative viability ([3]; first compound 0.04 µM): 1.17
- relative viability ([3]; first compound 0.1265 µM): 0.991
- relative viability ([3]; first compound 0.4 µM): 0.78
- relative viability ([3]; first compound 1.265 µM): 0.251
- relative viability ([3]; first compound 4 µM): 0.233
